In patent publication US9970924B2, “Mechanism and drug targets for reducing cell edema (neuroprotection) and cytoplasmic excitability in astrocytes in normal and pathological states” (CELICA D.O.O., priority 2013, dated 2018):
Entries after “also recorded” stand apart in the source; their conditions may differ. Read-outs that look alike come from different tables or passages of the source.

What was measured:
[1] = tested on: astrocytes; assay: Hypotonically induced cell swelling (cell surface area) of astrocytes; format: cell-based; conditions: pretreated cells, hypotonic medium ~60% of control osmolarity
Source text: (§1) LSM 510 Meta software was used to measure cell area and perimeter of isolated Epac1-camps positive astrocytes before and after treatment of cell with different reagents.

[2] = tested on: [Ca2+]i in astrocytes; assay: Fluo-4 AM measurements of [Ca2+]i in cultured astrocytes; format: cell-based; conditions: for effect on hypotonicity-elicited periodic elevations in [Ca2+]i: 1 μM ADR or 10 μM Iso applied after hypotonic medium; for intracellular calcium levels on simultaneous treatment with hypotonic medium: 1 μM ADR or 10 μM Iso with hypotonic medium; for effect on ATP-induced elevation in cytosolic calcium levels: 1 mM ATP + 1 μM ADR or 10 μM Iso; for oscillations in intracellular calcium levels: agent alone: 1 μM ADR; for oscillations in intracellular calcium levels / intracellular Ca2+ levels (F/F0) within first 100 s after stimulation: 10 μM Iso; for intracellular Ca2+ levels (F/F0) within first 100 s after stimulation: agent alone: 1 mM ATP
Experimental: Live astrocytes were incubated for 30 min at room temperature in medium containing 2 μM of fluorescent dye Fluo-4 AM (Molecular Probes, Invitrogen, Eugene, Oreg., USA). Astrocytes were then transferred to dye-free standard saline solution for at least 30 min before experimentation to allow for cleavage of the AM ester group. Time lapse images were obtained every 3.5 s for up to 10 min with the inverted Zeiss LSM780 confocal microscope with oil-immersion plan apochromatic objective (63×, 1.4 NA) and 488-nm Ar-Ion laser excitation. Emission light was acquired with a 505-530-nm bandpass emission filter. […] Average fluorescence intensity before stimulation of each cell was subtracted from intensities after stimulation (ΔF). Average fluorescence intensity changes normalized to baseline fluorescence intensity (F/F0) were determined for the first 100 s after stimulation.

[3] = tested on: astrocytes; assay: Exocytotic fusion events of Alexa Fluor 546 dextran-labeled vesicles in cultured astrocytes; format: cell-based; conditions: for number of ATP triggered fusion events per cell: 1 mM ATP + 1 μM ADR or 10 μM Iso
Experimental: Time-lapse confocal images were obtained every 2 s for 10 min with the inverted Zeiss LSM780 and Zeiss LSM510 META confocal microscopes with oil-immersion plan apochromatic objective (63×, 1.4 NA) and 543-nm He—Ne laser excitation. […] Cells were scanned by eye for an individual exocytotic event by rapidly replaying the movie in forward and reverse directions. The onset of exocytosis was defined as the first frame showing a significant decrease in Alexa Fluor^546-dextran. A circular region of interest was centered on the spot where the event occurred, and changes in the fluorescence intensities of Alexa Fluor^546-dextran were monitored over time.

[4] = tested on: intracellular cAMP levels in astrocytes; assay: FRET measurements of cAMP in living primary astrocytes transfected with Epac1-camps; conditions: for effect on ADR triggered FRET response: 1 μM ADR
Source text: Astrocytes expressing Epac1-camps or AKAR2 FRET construct were examined with a Plan NeoFluoar 40×/1.3 Oil DIC immersion objective (Carl Zeiss, Jena, Germany) and 2-fold zoom factor using Zeiss LSM510 META confocal microscope (Carl Zeiss, Jena, Germany). Cells were excited at 458 nm and images (512×512) were acquired every 3.5 s or 7 s using Lambda stack acquisition. Emission spectra were collected from META detector in eight channels (lambda stack) ranging from 470 nm to 545 nm, each with a 10.7-nm width. Two-channel (CFP and YFP) images were generated from lambda stacks by analytical software “Extract channels”. Channels with emission spectra 470- and 481-nm and emission spectra 513-, 524-, and 534-nm were extracted to CFP channel and YFP channel, respectively. YFP and CFP fluorescence intensities were quantified within a region of interest selected for individual cell expressing Epac1-camps or AKAR2 using LSM 510 META software. In the graphs, FRET signal is reported as the ratio of YFP to CFP fluorescence signal after subtracting the background fluorescence from both YFP and CFP signals using Sigma Plot. The values of FRET signals were normalized (set to 1.0) at the onset of the experiments. The decrease in FRET signals reflects an increase in [cAMP]i.
500 μM 3-Chloro-5-hydroxybenzoic acid (3-Cl-5-HBA; GPR81 receptor exogenous agonist).
The changes in YFP/CFP fluorescence emission ratio were normalized to baseline ratio values. Single-exponential (F=F0+c×exp (−t/τ)) decay functions or single-exponential rise to maximum functions (F=F0+c×(1−exp(−t/τ))) were fitted to the diagrams with YFP/CFP fluorescence emission ratios using SigmaPlot. The time-constant (τ) and YFP/CFP emission ratio amplitudes (c) were determined from the fitted curves. F is YFP/CFP emission ratio at time t, F0 is baseline YFP/CFP emission ratio, c is YFP/CFP emission ratio amplitude of F(t=0)−F0, and τ is the time constant of individual exponential component.

[5] = tested on: GPR81 receptor / intracellular cAMP levels in astrocytes; assay: FRET measurements of cAMP in living primary astrocytes transfected with AKAR2; format: cell-based, rat
Source text: Astrocytes expressing Epac1-camps or AKAR2 FRET construct were examined with a Plan NeoFluoar 40×/1.3 Oil DIC immersion objective (Carl Zeiss, Jena, Germany) and 2-fold zoom factor using Zeiss LSM510 META confocal microscope (Carl Zeiss, Jena, Germany). Cells were excited at 458 nm and images (512×512) were acquired every 3.5 s or 7 s using Lambda stack acquisition. Emission spectra were collected from META detector in eight channels (lambda stack) ranging from 470 nm to 545 nm, each with a 10.7-nm width. Two-channel (CFP and YFP) images were generated from lambda stacks by analytical software “Extract channels”. […] YFP and CFP fluorescence intensities were quantified within a region of interest selected for individual cell expressing Epac1-camps or AKAR2 using LSM 510 META software. In the graphs, FRET signal is reported as the ratio of YFP to CFP fluorescence signal after subtracting the background fluorescence from both YFP and CFP signals using Sigma Plot. […]
The changes in YFP/CFP fluorescence emission ratio were normalized to baseline ratio values. Single-exponential (F=F0+c×exp (−t/τ)) decay functions or single-exponential rise to maximum functions (F=F0+c×(1−exp(−t/τ))) were fitted to the diagrams with YFP/CFP fluorescence emission ratios using SigmaPlot. The time-constant (τ) and YFP/CFP emission ratio amplitudes (c) were determined from the fitted curves. […]

[6] = tested on: astrocytes; conditions: within an hour
Source text: as §1

SMILES: CC(C)NCC(O)c1ccc(O)c(O)c1 (stereo not shown) [Iso, isoprenaline]
- hypotonically induced cell swelling (increase in cell surface area) [1]: reduced
- effect on hypotonicity-elicited periodic elevations in [Ca2+]i [2]: ceased
- intracellular calcium levels on simultaneous treatment with hypotonic medium [2]: transient increase in intracellular calcium levels, which was followed by a decline to basal levels
- effect on ATP-induced elevation in cytosolic calcium levels [2]: diminishes the elevation in cytosolic calcium levels
- oscillations in intracellular calcium levels [2]: not
- intracellular Ca2+ levels (F/F0) within first 100 s after stimulation ([2]; 1 μM ADR): no significant difference
- number of ATP triggered fusion events per cell [3]: diminished

SMILES: CC(C)NCC(O)COc1cccc2ccccc12 (stereo not shown) [Pro, propranolol]
- effect on ADR triggered FRET response ([4]; 1 μM Pro): completely prevented

SMILES: O=C(O)c1cc(O)cc(Cl)c1 [3-Cl-5-HBA]
- intracellular cAMP levels (AKAR2 YFP/CFP ratio; uprise = cAMP increase) ([5]; 500 μM 3-Cl-5-HBA): increase in intracellular cAMP levels

SMILES: Nc1ncnc2c1ncn2[C@@H]1O[C@H](COP(=O)(O)OP(=O)(O)OP(=O)(O)O)[C@@H](O)[C@H]1O [ATP, adenosine-5′-triphosphate]
- intracellular Ca2+ levels (F/F0) within first 100 s after stimulation ([2]; 1 μM ADR): increased
- exocytotic fusion release events ([3]; 1 mM ATP): triggered exocytotic fusion release events

SMILES: C[C@H](O)C(=O)[O-].[Na+] [lactate, Sodium L-lactate]
- intracellular cAMP levels (AKAR2 YFP/CFP ratio; uprise = cAMP increase) ([5]; 20 mM lactate): increase in intracellular cAMP levels
- intracellular cAMP levels (Epac1-camps YFP/CFP ratio; decline = cAMP increase) ([4]; 20 mM lactate): increase in intracellular cAMP levels

SMILES: C[C@H]1O[C@@H](n2cnc3c(N)ncnc32)C[C@@H]1O [DDA, 2′,5′-dideoxiadenosine]
- effect on ADR triggered FRET response ([4]; 100 μM DDA): slower decay kinetics

SMILES: CNCC(O)c1ccc(O)c(O)c1 (stereo not shown) [ADR, adrenaline]
- decrease in cell area [6]: 5-10%
- increase in cell perimeter [6]: 30-50%
- hypotonically induced cell swelling (increase in cell surface area) [1]: reduces hypotonically induced cell swelling; also recorded: reduced
- frequency of calcium oscillations compared with hypotonic medium-stimulated cells ([2]; 1 μM ADR): more frequent
- effect on hypotonicity-elicited periodic elevations in [Ca2+]i [2]: attenuated; also recorded: ceased
- intracellular calcium levels on simultaneous treatment with hypotonic medium [2]: transient increase in intracellular calcium levels, which was followed by a decline to basal levels
- effect on ATP-induced elevation in cytosolic calcium levels [2]: diminishes the elevation in cytosolic calcium levels
- oscillations in intracellular calcium levels [2]: induced oscillations in intracellular calcium levels
- intracellular Ca2+ levels (F/F0) within first 100 s after stimulation ([2]; 1 μM ADR): increased
- number of ATP triggered fusion events per cell [3]: reduce the number of exocytotic fusion events; also recorded: diminished
- increase in FRET response to hypotonic medium (decrease in cAMP) ([4]; ADR pre-treated cells, hypotonic medium): reversible and slowly declined to the baseline
- EC50 ([4]; Rattus norvegicus, Astrocyte, read-out: concentration of ADR at which 50% of maximum cAMP increase was observed (EC50), maximum YFP/CFP ratio response, Epac1-camps, dose-response): ~30 nM
- EC50 ([4]; read-out: concentration of ADR at which 50% of maximum cAMP increase was observed (EC50), maximum YFP/CFP ratio response, Epac1-camps, dose-response): 29 ± 0.1 nM

SMILES: CC(C)Cn1c(=O)n(C)c(=O)c2[nH]cnc21 [IBMX]
- effect on Epac1-camps response to FSK ([4]; 200 μM IBMX with 50 μM FSK): increased Epac1-camps response to AC activator FSK
